Source: paper PMC6934184, “Selective DNA-PKcs inhibition extends the therapeutic index of localized radiotherapy and chemotherapy” (The Journal of Clinical Investigation, 2019)

Biological target: T1, PRKD2 (PKD2) (Homo sapiens, UniProt Q9BZL6)
T1 construct: purchased Thermo Fisher Scientific (Life Technologies) SelectScreen
Experiment: SelectScreen Z'LYTE
Assay type: biochemical
Procedure, shortened: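 Percent values come from Thermo SelectScreen profiling of NU5455, combining activity and binding assays. CSF1R was run in Z'LYTE format at Km app ATP, and CAMK1 in Adapta format with ATP listed at 10.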

T1 sequence (Q9BZL6 whole entry): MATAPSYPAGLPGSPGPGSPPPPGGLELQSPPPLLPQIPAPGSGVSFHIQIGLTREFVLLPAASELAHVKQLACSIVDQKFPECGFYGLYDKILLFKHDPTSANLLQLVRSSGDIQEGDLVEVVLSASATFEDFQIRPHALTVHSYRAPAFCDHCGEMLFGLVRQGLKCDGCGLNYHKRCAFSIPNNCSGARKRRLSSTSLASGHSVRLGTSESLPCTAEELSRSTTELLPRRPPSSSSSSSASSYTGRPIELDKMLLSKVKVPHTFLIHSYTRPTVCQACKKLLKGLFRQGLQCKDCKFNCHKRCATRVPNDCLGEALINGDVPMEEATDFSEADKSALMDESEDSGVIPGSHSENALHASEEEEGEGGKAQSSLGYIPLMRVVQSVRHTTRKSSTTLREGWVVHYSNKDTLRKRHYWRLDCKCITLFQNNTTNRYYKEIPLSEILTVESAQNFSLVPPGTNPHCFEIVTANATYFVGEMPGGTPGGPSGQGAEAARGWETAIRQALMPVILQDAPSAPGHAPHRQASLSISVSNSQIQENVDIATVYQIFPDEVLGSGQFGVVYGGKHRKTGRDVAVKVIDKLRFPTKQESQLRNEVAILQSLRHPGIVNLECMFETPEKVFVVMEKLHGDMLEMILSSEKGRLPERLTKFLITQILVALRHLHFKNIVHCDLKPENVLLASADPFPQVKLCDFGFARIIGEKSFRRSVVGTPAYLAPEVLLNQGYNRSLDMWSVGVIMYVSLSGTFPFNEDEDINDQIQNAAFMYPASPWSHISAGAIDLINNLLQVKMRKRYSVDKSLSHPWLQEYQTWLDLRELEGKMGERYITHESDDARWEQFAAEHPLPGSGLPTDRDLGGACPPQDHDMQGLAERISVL

CN(C(=O)CN1CCOCC1)c1ccc2sc3c(-c4cccc5c(=O)cc(N6CC7CCC(C6)O7)oc45)cccc3c2c1 [NU5455]
inhibition at 1 µM: -9.1%
